Measured values as given in patent publication US11090273B2, “Tagged poly(ester amide urethane)s, nanoparticles formed from same, and uses thereof” (Cornell University, priority 2016, dated 2021).

How the values were obtained:
[1] = system: HeLa cells; experiment: Mitochondrial membrane potential (ΔΨm) change, JC-1 flow cytometry; format: cell-based; details: 2 μg/mL GA equivalent (CCCP 50 μM), 24 h
[2] = system: A549 cells; experiment: as above; format: cell-based, human; details: 2 μg/mL GA equivalent (CCCP 50 μM), 24 h
[3] = system: HCT116 cells; experiment: Cellular apoptosis by flow cytometry (Annexin V-FITC/PI); format: cell-based, human; details: HCT 116; 2 μg/mL GA or equal amount loaded; 24 h
Protocol: Apoptosis was assessed using staining with Annexin V-FITC/PI apoptosis detection kit (Affymetrix, CA) according to the manufacturer's instruction followed by flow cytometry analysis.

[4] = system: MCF-7 human breast cancer xenograft tumor; details: xenograft tumor at end of study
Protocol: In vivo xenograft Protocols Used. Female BALB/c nude mice, 8-weeks old, were obtained from the Laboratory Animal Services Centre, The Chinese University of Hong Kong. Mice were kept at room temperature 23±2° C. with an alternating 12-h light-dark cycle, and were allowed access to food and water ad libitum.
Before inoculation, 10 mg/kg Estradiol benzoate was given into mice through intraperitoneal (IP) injection with 2-day intervals. MCF-7 cells (4×10^6 cells per mouse) were suspended in PBS and inoculated subcutaneously into the left flank of each mouse, and tumor growth was monitored regularly. […] Equal volumes of saline were used as solvent for the free drug groups.
The therapy was continued six times at 2-day intervals through tail vein injection. Estradiol benzoate was also IP injected into mice at 2-day intervals during administration. The antitumor activity of the tested formulations was estimated by recording the changes in tumor mass. Tumor volumes were monitored by recording the tumor length and width with a caliper then calculated using the equation, V=0.5×a×b^2, where V is tumor volume (mm), a is tumor length (mm), and b is tumor width (mm). Mice were sacrificed on the 12th day after administration, and the tumors were weighed. […]

[5] = system: MMP-2 and MMP-9 activity of A549 cells; experiment: Gelatin zymography of MMP activity; format: cell-based, human; details: 0.6 μg/mL GA equivalent, serum-free media, 16 h

In the case of `N#CC(C#N)=NNc1cccc(Cl)c1` [CCCP, carbonyl cyanide 3-chlorophenylhydrazone], the “percentage of cell population with severe loss of ΔΨm” value (shortened to “percentage … with severe loss of ΔΨm”) [1] is reported as 60.0% and the “percentage … with severe loss of ΔΨm” value [2] is reported as 89.7%.

In the case of `CC(C)=CCC[C@]1(C)C=Cc2c(O)c3c(c(CC=C(C)C)c2O1)O[C@]12C(=C[C@@H]4C[C@H]1C(C)(C)O[C@@]2(C/C=C(/C)C(=O)O)C4=O)C3=O` [GA, Gambogic acid], the “percentage of dead cells” value [3] is reported as 27.7%, the “percentage of healthy cells” value [3] is reported as 68.1% and the “percentage of late apoptotic cells” value [3] is reported as 2.0%. The “percentage … with severe loss of ΔΨm” value [1] was 29.7%, the “H&E staining: vacuoles in the tumor tissue” value [4] was “fewer vacuoles” and the “percentage … with severe loss of ΔΨm” value [2] was 60.1%. For the same compound, the “MMP band size and intensity / MMP activity (gelatin zymography)” value [5] was “reduced when comparing to the control sample”.
